# Laboratory results published in patent US9732087B2, “Diamino-pyridine, pyrimidine, and pyridazine modulators of the histamine H4 receptor” (JANSSEN PHARMACEUTICA NV, priority 2008, dated 2017).
# Structures can show the parent of a compound that is named as a salt.
# Target: human H4 receptor (Homo sapiens (Human), UniProt Q9H3N8)
# Assay: Binding assay on recombinant human histamine H4 receptor ([3H]histamine competition, SK-N-MC cell membranes)
# Details: membranes harvested with cell harvester; [3H]histamine 10 nM; average of results; read-out: Cell Harvester Ki
# Summary of the method: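 Membranes from SK-N-MC cells stably or transiently transfected with human H4 receptor, prepared by homogenization and 30,000 g centrifugation in Tris/EDTA. Bound [3H]histamine separated by rapid filtration on PEI-treated GF/C filters, washed with ice-cold Tris/EDTA, counted by scintillation. '>' values denote highest concentration tested.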
row,Ki [nM],SMILES
1,284,"CN[C@@H]1CCN(c2cnnc(NCCCC(F)(F)F)c2)C1 [Example 386, 5-[(3R)-3-(Methylamino)pyrrolidin-1-yl]-N-(4,4,4-trifluorobutyl)pyridazin-3-amine]"
2,> 10000,"N[C@H]1CCN(c2cnnc(NC3CC3)c2)C1 [Example 336, 5-[(3S)-3-Aminopyrrolidin-1-yl]-N-cyclopropylpyridazin-3-amine]"
3,45.4,"CN[C@@H]1CCN(c2ccnc(NCC(C)(C)O)n2)C1 [Example 114, 2-Methyl-1-({4-[(3R)-3-(methylamino)pyrrolidin-1-yl]pyrimidin-2-yl}amino)propan-2-ol]"
4,1540,"c1ccc(CCNc2nccc(N3CCNCC3)n2)cc1 [Example 132, N-(2-Phenylethyl)-4-piperazin-1-ylpyrimidin-2-amine]"
5,> 10000,"COCCNc1cc(N2CCN(C)CC2)cnn1 [Example 405, N-(2-Methoxyethyl)-5-(4-methylpiperazin-1-yl)pyridazin-3-amine]"
6,106,"CC(C)CNc1cc(N2CC[C@@H](N)C2)cnn1 [Example 353, 5-[(3R)-3-Aminopyrrolidin-1-yl]-N-(2-methylpropyl)pyridazin-3-amine]"
7,2100,"CC1C(Nc2cc(N3CC[C@H](N)C3)ccn2)C[C@H]2C[C@@H]1C2(C)C (stereo partly drawn) [Example 272, 4-[(3S)-3-Aminopyrrolidin-1-yl]-N-[(1S,5R)-2.6.6-trimethylbicyclo[3.1.1]hept-3-yl]pyridin-2-amine]"
8,257,"CN1CCN(c2ccnc(NCc3ccc(F)cc3)c2)CC1 [Example 249, N-(4-Fluorobenzyl)-4-(4-methylpiperazin-1-yl)pyridin-2-amine]"
9,> 10000,"CN1CCN(c2cnnc(NCC3CCCC3)c2)CC1 [Example 408, N-(Cyclopentylmethyl)-5-(4-methylpiperazin-1-yl)pyridazin-3-amine]"
10,276,"CN[C@H]1CCN(c2ccnc(NC3C[C@H]4C[C@@H](C3C)C4(C)C)c2)C1 (stereo partly drawn) [Example 230, 4-[(3S)-3-(Methylamino)pyrrolidin-1-yl]-N-[(1S,5R)-2,6,6-trimethylbicyclo[3.1.1]hept-3-yl]pyridin-2-amine]"
11,1.41,"CN[C@@H]1CCN(c2ccnc(N[C@H]3C[C@H]4CC[C@]3(C)C4(C)C)c2)C1 [Example 247, 4-[(3R)-3-(Methylamino)pyrrolidin-1-yl]-N-[(1R,2S,4R)-1,7,7-trimethylbicyclo[2.2.1]hept-2-yl]pyridin-2-amine]"

# Further lines, the molecule ahead of its results:
row,SMILES,Ki [nM]
1,"CNC1CN(c2ccnc(NCC3CCCCC3)n2)C1 [Example 102, N-(Cyclohexylmethyl)-4-[3-(methylamino)azetidin-1-yl]pyrimidin-2-amine]",45.9
2,"NC1CN(c2ccnc(NC[C@H]3CCCO3)n2)C1 [Example 94, 4-(3-Aminoazetidin-1-yl)-N-[(2R)-tetrahydrofuran-2-ylmethyl]pyrimidin-2-amine]",868
3,"CN[C@@H]1CCN(c2ccnc(NCc3ccc(F)cc3)c2)C1 [Example 7, N-(4-Fluorobenzyl)-4-[(3R)-3-(methylamino)pyrrolidin-1-yl]pyridin-2-amine dihydrochloride]",13.7
4,"CN[C@@H]1CCN(c2ccnc(NCc3ccccc3)c2)C1 [Example 11, N-Benzyl-4-[(3R)-3-(methylamino)pyrrolidin-1-yl]pyridin-2-amine]",12.9
5,"C[C@@H](Nc1nccc(N2C[C@H]3CCN[C@H]3C2)n1)c1ccccc1 [Example 141, 4-[(3aR,6aR)-Hexahydropyrrolo[3,4-b]pyrrol-5(1H)-yl]-N-[(1R)-1-phenylethyl]pyrimidin-2-amine]",2320
6,"CN[C@@H]1CCN(c2ccnc(NCc3ccc(F)cc3)n2)C1 [Example 79, (4-Fluoro-benzyl)-[4-(3R)-(3-methylamino-pyrrolidin-1-yl)-pyrimidin-2-yl]amine]",11.6
7,"N[C@@H]1CCN(c2ccnc(N[C@@H]3CCOC3)n2)C1 [Example 29, 4-[(3R)-3-Aminopyrrolidin-1-yl]-N-[(3R)-tetrahydrofuran-3-yl]pyrimidine-2-amine]",58.5
8,c1cc(N2C[C@H]3CCN[C@H]3C2)cc(NCC2CCCCC2)n1 [Example 256],617
